Source: publication PMC7956476, “Quinoline Functionalized Schiff Base Silver (I) Complexes: Interactions with Biomolecules and In Vitro Cytotoxicity, Antioxidant and Antimicrobial Activities” (Molecules, 2021)
In brackets after ≈: the same amount, converted by molar mass. Like-named read-outs stand apart in the source and are kept apart here.

Experiments:
[1] = test system: Escherichia coli ATCC 25922; parameters: method as in doi:10.1016/j.poly.2019.06.038; conditions: standard; E. coli; cited from earlier work
[2] = test system: Pseudomonas aeruginosa ATCC 27853; parameters: method as in doi:10.1016/j.poly.2019.06.038; conditions: standard; P. aeruginosa; cited from earlier work
[3] = test system: Staphylococcus aureus ATCC 700699 (methicillin-resistant); parameters: method as in doi:10.1016/j.poly.2019.06.038; conditions: standard; cited from earlier work
[4] = test system: Salmonella typhimurium ATCC 14026; conditions: standard; S. typhi; cited from earlier work
[5] = test system: Staphylococcus aureus ATCC 25923; parameters: method as in doi:10.1016/j.poly.2019.06.038; conditions: standard; S. aureus; cited from earlier work
[6] = test system: Staphylococcus aureus ATCC 25923; assay: Minimum inhibitory concentration (MIC), spotting on Müeller–Hinton agar; format: cell-based; conditions: Gram + Ve; S. aureus; 37 °C, 18 h
Method: (§1) Sterilized Nutrient agar medium was first prepared by dissolving 38 g of Müeller–Hinton agar (MHA) (Biolab, Midrand, Africa) in distilled water (1 L). […] The cooled Agar medium was poured in Petri dishes while ensuring a uniform 4 mm depth of the medium and cooling further to ambient temperature.
(§2) These bacteria were inoculated in a sterilized Nutrient Broth (NB) (Biolab, Midrand, Africa) through streak plate technique and incubated at 37 °C for 18 h. The nutrient broth was sterilized by dissolving 1.3 g in distilled water (100 mL). Ca. 10 mL of the nutrient broth was transferred into a cotton wool-plugged test tubes and wrapped with an aluminium foil. […] Following this was the isolation of a single colony of the bacteria and inoculated into a 10 mL sterile NB which was then incubated in a shaking incubator at 37 °C for 18 h. Each of the bacteria strain concentrations was adjusted with sterile distilled water to get a final concentration of 1.5 × 10^8 cfu/mL, i.e., 0.5 Mc Farland’s Standard using a densitometer (Mc Farland Latvia). The bacteria were lawn inoculated on the set MHA Petri dishes using a sterile cotton swab. Screening of L1–L5 and Q1–Q15 for antibacterial activity was first carried out by spotting 5 µL of their solution (prepared from the dissolution of 1000 µg of the L1–L5 and Q1–Q15 in 1 mL dimethyl sulfoxide (DMSO)) on an MHA petri dish and incubated at 37 °C for 18 h. The antibacterial activity was determined by looking out for a clear zone at the spotting point.

[7] = test system: Klebsiella pneumoniae ATCC 31488; assay: as above; format: cell-based; conditions: versus the standard (0.8 µg/mL)
Method: as §1, §2

[8] = test system: Escherichia coli ATCC 25922; assay: as above; format: cell-based; conditions: Gram − Ve; E. coli; 37 °C, 18 h
Method: as §1, §2

[9] = test system: Staphylococcus aureus ATCC 700699 (methicillin-resistant); assay: as above; format: cell-based; conditions: Gram + Ve; methicillin-resistant S. aureus; 37 °C, 18 h
Method: as §1, §2

[10] = test system: Salmonella typhimurium ATCC 14026; assay: as above; format: cell-based; conditions: Gram − Ve; S. typhi; 37 °C, 18 h
Method: as §1, §2

[11] = target: bovine serum albumin (BSA) (Bos taurus, UniProt P02769); assay: Albumin binding by absorption spectroscopy titration
Sequence of bovine serum albumin (BSA) (P02769 25-607): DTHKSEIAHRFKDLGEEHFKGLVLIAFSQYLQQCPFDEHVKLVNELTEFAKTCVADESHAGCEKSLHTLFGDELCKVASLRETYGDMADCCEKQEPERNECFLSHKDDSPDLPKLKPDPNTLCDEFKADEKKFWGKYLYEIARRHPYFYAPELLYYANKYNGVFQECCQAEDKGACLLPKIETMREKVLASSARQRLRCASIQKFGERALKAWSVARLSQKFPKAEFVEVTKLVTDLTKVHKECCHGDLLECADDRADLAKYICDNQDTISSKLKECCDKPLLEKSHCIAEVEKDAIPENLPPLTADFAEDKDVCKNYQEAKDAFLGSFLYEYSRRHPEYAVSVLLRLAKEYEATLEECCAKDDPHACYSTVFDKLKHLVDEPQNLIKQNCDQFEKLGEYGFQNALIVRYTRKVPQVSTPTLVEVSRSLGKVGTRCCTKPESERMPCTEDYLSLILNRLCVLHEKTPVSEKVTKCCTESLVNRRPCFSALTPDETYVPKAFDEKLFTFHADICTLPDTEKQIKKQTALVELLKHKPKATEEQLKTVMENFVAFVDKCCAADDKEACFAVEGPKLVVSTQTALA
Description: Bovine serum albumin (BSA) was used as the protein standard in this study because of its close resemblance to human serum albumin (HSA), its stability, high solubility, neutrality in many biochemical reactions and low cost. In protein binding study, absorption spectroscopy titration is a known method used in studying the conformational changes in proteins, and this protein is characterized by an intense absorbance peak at 280 nm depicting the microenvironment around tyrosine and tryptophan residue polarity.
The absorbance assay of albumin binding is a very simple method used in identifying the conformational changes in protein. […] A stock solution of bovine serum albumin (BSA) was prepared by dissolving an appropriate amount of BSA in phosphate buffer saline solution (pH 7.2) under constant stirring for 1 h at 25 °C. It was kept at 4 °C and used within four days. […] The stock solution of the complex was prepared by dissolving 1 mmol of the complexes in DMSO. The absorption titration assay was done by adding different concentrations (0–10 µM) of the complexes to a constant BSA concentration (6 µM). The sample solution was incubated after each addition of the concentrations for 10 min at 25 °C before recording the absorbance at λmax 280 nm.

[12] = Ferric reducing antioxidant power (FRAP) assay; format: biochemical; conditions: done in triplicate
Description: Antioxidants are important in protecting the human body against damage by reactive oxygen species (ROS). Accumulation of ROS in the cells may lead to damage of the DNA, RNA, and proteins which subsequently leads to several physiological disorders such as cardiovascular disease, diabetes, rheumatism, atherosclerosis, cancer, aging and cell death. […] The free radical scavenging ability of all ligands and complexes in this study were investigated using ferric reducing antioxidant power (FRAP). In antioxidant studies, FRAP assay is often preferred because it is simple, fast, economical, and direct in antioxidant measurement. FRAP assay is based on the electron-donating ability of an antioxidant compound. This involves the reduction of a colorless Fe^3+ tripyridyltriazine complex (Fe^3+ (TPTZ)) to an intense blue-colored Fe^2+ tripyridyltriazine complex (Fe^2+ (TPTZ)) by the electron-donating antioxidants at low pH [69]. The reducing power is to determine the reductive ability of the test compounds.
Antioxidant activity studies of L1–L5 and Q1–Q15 were done using ferric reducing antioxidant power (FRAP) assay. The ferric reducing antioxidant power assay is often used to evaluate the ability of an antioxidant to donate an electron. […] The resulting mixture was incubated at 50 °C for 20 min, and 2.5 mL of 10% trichloroacetic acid was added to acidify the mixture. After that, 1 mL of the acidified mixture was added to 1 mL of distilled water and 0.5 mL of 0.1% FeCl3. The absorbance of the resulting solution was then measured at 700 nm. The antioxidant power of the compounds was expressed as a percentage of ferric reducing antioxidant power Ascorbic acid equivalent, as shown in Equation (4). (4) % FRAP =Absorbance of Absorbance of Sample/Absorbance of Ascorbic Acid ×100

calf thymus DNA (CT-DNA) = assay: CT-DNA electronic absorption titration (Wolfe–Shimer); format: binding; conditions: intrinsic binding constant, absorption titration, PBS pH 7.2
Method: The interaction of the L1–L5 and complexes Q1–Q15 with calf thymus-DNA was carried out in a Phosphate buffer saline solution pH 7.2 stored at 4 °C. The DNA stock solution was prepared by dissolving CT-DNA sodium salt in Phosphate buffer saline solution with continuous stirring overnight. It was filtered and stored at 4 °C and used within four days. […] A fixed amount of the L1–L5 and complexes Q1–Q15 (50 µM) were prepared by dissolving an appropriate amount in DMSO. […] Therefore, in all the experimental of the interaction of L1–L5 and complexes Q1–Q15 with biomolecules, the final concentration of DMSO in the incubation mixture was ~2% (v/v).
The binding modes of L1–L5 and complexes Q1–Q15 to CT-DNA were characterized through electronic absorption titration by varying concentrations of CT-DNA (0–30 µM) in phosphate buffer saline solution against fixed concentrations (20 µM) of L1–L5 and complexes Q1–Q15. […] The absorbance of CT-DNA is cancelled by adding equivalent amounts of CT-DNA to both the tested compounds and the reference solutions.

CT-DNA-EB adduct = assay: Fluorescence competitive displacement of ethidium bromide from CT-DNA; format: binding, calf; conditions: for CT-DNA-EB-Complex Ksv (M^−1) × 10^4: Stern–Volmer quenching constant, EB displacement, 25 °C; for CT-DNA-EB-Complex Kq (M^−1S^−1) × 10^12: bimolecular quenching constant, Ksv = Kqτo, τo 10^−8 s; for CT-DNA-EB-Complex Kbin (M^−1) × 10^5: binding constant from double-logarithmic plot
Description: The Stern–Volmer plot approach was used based on the fact that the Stern–Volmer plots for Q1–Q15 (Figure 5c), were linear an indication of only one mechanism for the quenching fluorescence, i.e., either dynamic or static. […] (1) Ksv=Kqτo where Ksv, Kq, and τo represent Stern–Volmer quenching constant, bimolecular quenching constant, and an average lifetime of the fluorophore in the absence of the quencher, respectively. τₒ normally takes about 10^−8 s in biomacromolecules.
The double-logarithmic Equation (2) was used in determining the binding constant of complexes Q1–Q15 and CT-DNA. (2) logFo−F/F=logKb+n logQ
A competitive displacement study was carried out using fluorescence spectroscopy between CT-DNA pre-treated with ethidium bromide (EB) and complexes Q1–Q15 to establish the complexes′ actual mode of binding to CT-DNA. […] The competitive luminescence displacement assay was done using a modified method. Pre-treated 15 µM solution of EB with 15 µM of CT-DNA was prepared in a phosphate buffer of pH 7.2 and left to equilibrate for 30 min. Keeping CT-DNA-EB concentrations constant, different concentrations (0–20 µM) of the complexes were added at 8 min incubation interval at room temperature. The fluorescence quenching ability of CT-DNA bound EB by the complexes were recorded in the wavelength range of 530–700 nm with an excitation wavelength at 525 nm at 25 °C. (6) Fo/F=1+KSVQ=1+KqτoQ
A Stern–Volmer (Equation (6)) was used to evaluate the CT-DNA-EB fluorescence quenching of the complexes. Where Fo and F denote the relative fluorescence intensities of CT-DNA in the absence and presence of the quencher, Ksv, Stern–Volmer quenching constant, [Q], quencher concentration, Kq, bimolecular quenching constant and τo, average lifetime of the fluorophore in the absence of the quencher which is typically equal to 10^−8 s in biomacromolecules.

[13] = test system: Pseudomonas aeruginosa ATCC 27853; assay: Minimum inhibitory concentration (MIC), spotting on Müeller–Hinton agar; format: cell-based; conditions: Gram − Ve; P. aeruginosa; 37 °C, 18 h
Method: as §1, §2

| Structure (SMILES) | Minimum inhibitory concentration, EC [1] [µg/mL] | Minimum inhibitory concentration, PA [2] [µg/mL] | Minimum inhibitory concentration, MRSA [3] [µg/mL] | Minimum inhibitory concentration, ST [4] [µg/mL] | Minimum inhibitory concentration, SA [5] [µg/mL] | Minimum inhibitory concentration, SA [6] [µg/mL] | activity times higher than the standard against K. pneumoniae [7] [times] | Minimum inhibitory concentration, EC [8] [µg/mL] | Minimum inhibitory concentration, MRSA [9] [µg/mL] | Minimum inhibitory concentration, ST [10] [µg/mL] | Protein-Complex Kb (M^−1) × 10^4 [11] | Antioxidant (IC50 mg/mL) FRAP [12] [mg/mL] | CT-DNA-Cmp. Kb (M^−1) × 10^5 (calf thymus DNA (CT-DNA)) | CT-DNA-EB-Complex Ksv (M^−1) × 10^4 (CT-DNA-EB adduct) | CT-DNA-EB-Complex Kq (M^−1S^−1) × 10^12 (CT-DNA-EB adduct) | CT-DNA-EB-Complex Kbin (M^−1) × 10^5 (CT-DNA-EB adduct) | Minimum inhibitory concentration, PA [13] [µg/mL] |
| --- | --- | --- | --- | --- | --- | --- | --- | --- | --- | --- | --- | --- | --- | --- | --- | --- | --- |
| O=C(O)c1cn(C2CC2)c2cc(N3CCNCC3)c(F)cc2c1=O [Ciprofloxacin] | 1.6 (≈ 4.83 µM) | 0.2 (≈ 0.604 µM) | 25 (≈ 75.4 µM) | 0.4 (≈ 1.21 µM) | 25 (≈ 75.4 µM) |  |  |  |  |  |  |  |  |  |  |  |  |
| C(=NCc1cccs1)c1ccc2ccccc2n1.C(=NCc1cccs1)c1ccc2ccccc2n1.O=[N+]([O-])[O-].[Ag+] [Complex Q5, [Ag(L5)2]NO3] |  |  |  |  |  | 50 | 32 | 1.6 | 100 | 12.5 | 5.95 (M^−1) × 10^4 | 2.04 ± 0.0032 | 4.00 (M^−1) × 10^5 | 2.31 (M^−1) × 10^4 | 2.31 (M^−1S^−1) × 10^12 | 1.03 (M^−1) × 10^5 |  |
| Clc1ccc(N=Cc2ccc3ccccc3n2)cc1.Clc1ccc(N=Cc2ccc3ccccc3n2)cc1.[Ag+].[O-][Cl+3]([O-])([O-])[O-] [Complex Q8, [Ag(L3)2]ClO4] |  |  |  |  |  | 50 | 64 | 1.6 | 25 | 25 | 9.48 (M^−1) × 10^4 | 3.27 ± 0.093 | 30.0 (M^−1) × 10^5 | 3.98 (M^−1) × 10^4 | 3.98 (M^−1S^−1) × 10^12 | 1.02 (M^−1) × 10^5 | 0.1 |
| Clc1ccc(N=Cc2ccc3ccccc3n2)cc1.Clc1ccc(N=Cc2ccc3ccccc3n2)cc1.O=S(=O)([O-])C(F)(F)F.[Ag+] [Complex Q13, [Ag(L3)2]CF3SO3] |  |  |  |  |  | 25 |  | 25 | 50 | 50 | 2.89 (M^−1) × 10^4 | 2.22 ± 0.0055 | 4.29 (M^−1) × 10^5 | 3.33 (M^−1) × 10^4 | 3.33 (M^−1S^−1) × 10^12 | 5.74 (M^−1) × 10^5 | 12.5 |
| Cc1ccc(N=Cc2ccc3ccccc3n2)cc1.Cc1ccc(N=Cc2ccc3ccccc3n2)cc1.O=S(=O)([O-])C(F)(F)F.[Ag+] [Complex Q14, [Ag(L4)2]CF3SO3] |  |  |  |  |  | 50 |  | 25 | 1000 | 50 | 7.50 (M^−1) × 10^4 | 3.55 ± 0.022 | 3.33 (M^−1) × 10^5 | 2.98 (M^−1) × 10^4 | 2.98 (M^−1S^−1) × 10^12 | 5.31 (M^−1) × 10^5 | ~0.8 |
